{
  "source": "paper PMC3419223",
  "about": "“Transient Receptor Potential Ankyrin 1 Channel Localized to Non-Neuronal Airway Cells Promotes Non-Neurogenic Inflammation” (PLoS ONE, 2012)",
  "key": {"TRPA1": {"target": "T1, TRPA1 (Homo sapiens, UniProt O75762)", "T1 construct": "cultured human airway cells, including fibroblasts, epithelial and smooth muscle cells express functional TRPA1 channels; endogenous in cells; host or cells: SAEC, NHLF, HBSMC (Lonza, primary); A549, IMR90 (ATCC)", "T1 sequence (O75762 whole entry)": "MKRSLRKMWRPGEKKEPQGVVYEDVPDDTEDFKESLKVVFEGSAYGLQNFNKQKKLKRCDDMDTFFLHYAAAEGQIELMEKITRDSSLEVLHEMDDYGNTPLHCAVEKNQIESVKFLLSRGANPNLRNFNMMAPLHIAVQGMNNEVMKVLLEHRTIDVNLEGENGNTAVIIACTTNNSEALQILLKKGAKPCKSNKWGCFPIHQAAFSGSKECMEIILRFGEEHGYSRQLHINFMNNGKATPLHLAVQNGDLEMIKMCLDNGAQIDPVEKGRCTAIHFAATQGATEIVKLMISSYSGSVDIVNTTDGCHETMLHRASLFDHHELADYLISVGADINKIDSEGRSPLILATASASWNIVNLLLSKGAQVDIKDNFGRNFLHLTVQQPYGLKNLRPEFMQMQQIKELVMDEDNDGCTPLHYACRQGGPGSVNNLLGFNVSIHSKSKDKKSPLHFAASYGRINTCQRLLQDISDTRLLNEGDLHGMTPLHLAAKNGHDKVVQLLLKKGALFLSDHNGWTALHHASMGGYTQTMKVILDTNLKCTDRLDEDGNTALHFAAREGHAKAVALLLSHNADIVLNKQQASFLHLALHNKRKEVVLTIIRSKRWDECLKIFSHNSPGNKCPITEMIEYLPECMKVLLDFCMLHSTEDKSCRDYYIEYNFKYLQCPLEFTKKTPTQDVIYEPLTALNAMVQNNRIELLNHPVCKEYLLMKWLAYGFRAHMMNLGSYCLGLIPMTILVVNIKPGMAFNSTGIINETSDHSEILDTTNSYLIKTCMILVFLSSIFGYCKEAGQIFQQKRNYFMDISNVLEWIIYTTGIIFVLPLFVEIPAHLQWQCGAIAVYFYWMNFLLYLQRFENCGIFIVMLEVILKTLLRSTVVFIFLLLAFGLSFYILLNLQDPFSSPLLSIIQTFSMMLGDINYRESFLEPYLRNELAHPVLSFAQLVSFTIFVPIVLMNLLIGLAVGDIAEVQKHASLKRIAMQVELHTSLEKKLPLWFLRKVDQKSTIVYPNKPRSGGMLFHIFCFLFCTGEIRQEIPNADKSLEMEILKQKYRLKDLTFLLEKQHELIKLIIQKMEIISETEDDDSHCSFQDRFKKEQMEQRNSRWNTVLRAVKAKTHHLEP", "assay": "Calcium imaging (Fura-2) of TRPA1 agonist responses in human airway/lung cells", "format": "cell-based", "details": "antagonist 10 µM", "protocol": "Human small airway epithelial cells (SAEC), normal human lung fibroblasts (NHLF) and human bronchial smooth muscle cells (HBSMC) were purchased from Lonza. Human alveolar type II epithelium-like adherent cell line (A549) and human lung embryonic fibroblast (IMR90) were purchased from American Type Culture Collection (Manassas, VA). SAEC and NHLF were cultured respectively in SAGM and FBM medium (Lonza) according to the manufacturer's instructions. IMR90 and HBSMC were cultured in DMEM supplemented with 10% FBS, 2 mM glutamine, 100 U penicillin and 100 µg/ml streptomycin (Sigma-Aldrich), and A549 were cultured in RPMI supplemented with 10% FBS, 2 mM glutamine, 100 U penicillin, 100 µg/ml streptomycin and 1 mM HEPES (Sigma-Aldrich). All cells were cultured in an atmosphere of 95% air and 5% CO2 at 37°C.\nCSE was generated as previously reported. Briefly, aqueous CSE was obtained from the combustion of four cigarettes (Marlboro Red, 12 mg of tar, 0.9 mg of nicotine each) bubbled through 50 ml of buffer and subsequently filtered through a 0.2-µm pore filter (Millipore). To ensure reproducibility among different CSE batches, the absorbance (optical density; OD) measured at 320 nm was used as a measure of the “strength” of the extract. Dilutions were made with buffer to obtain the desired absorbance. The CSE was freshly prepared on the day of the experiment and used immediately after preparation.\n(§1) For calcium fluorescence measurements, cells were incubated with 5 µM Fura-2AM ester (Alexis Biochemicals) for 40 minutes at 37°C. Intracellular calcium levels were measured and recorded with a dynamic image analysis system (Laboratory Automation 2.0; RC Software). Fluorescence was measured during excitation at 340 and 380 nm, and after correction for the individual background fluorescence signals, the ratio of the fluorescence at both excitation wavelengths (Ratio340/380) was monitored. Experiments were performed using buffer solution containing (in mM): 150 NaCl, 6 KCl, 1 MgCl2, 1.5 CaCl2, 10 glucose, 10 HEPES at pH 7.4. Cells were stimulated with cinnamaldehyde (0.1–3000 µM), acrolein (0.1–3000 µM), CSE (0.001–0.5 OD), capsaicin (1 µM) and the activating peptide (SLIGKV-NH2) of the human PAR-2 receptor (hPAR-2 AP; 100 µM), or their respective vehicles (0.3% DMSO,aqueous buffer or 1% ethanol). HC-030031 and AP18 vehicles (used in all the in vitro experiments) were 3% DMSO and 1% DMSO, respectively. Results are expressed as the increase of Ratio340/380 over the baseline normalized to the maximum effect induced by ionomycin (5 µM) added at the end of the experiment."}, "PAR-2 receptor": {"target": "T2, PAR-2 receptor (Homo sapiens, UniProt P55085)", "T2 construct": "endogenous in cells", "T2 sequence (P55085 26-397)": "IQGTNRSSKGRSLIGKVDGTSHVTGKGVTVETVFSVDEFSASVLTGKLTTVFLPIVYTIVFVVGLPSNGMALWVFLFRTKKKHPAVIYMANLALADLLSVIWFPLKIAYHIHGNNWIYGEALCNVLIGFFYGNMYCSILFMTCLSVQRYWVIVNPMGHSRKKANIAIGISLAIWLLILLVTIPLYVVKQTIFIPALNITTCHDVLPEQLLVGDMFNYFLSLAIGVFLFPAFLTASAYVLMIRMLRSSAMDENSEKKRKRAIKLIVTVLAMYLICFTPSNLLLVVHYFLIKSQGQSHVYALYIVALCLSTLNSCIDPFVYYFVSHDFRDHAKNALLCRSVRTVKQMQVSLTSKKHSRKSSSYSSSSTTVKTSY", "assay": "Calcium imaging, response to the PAR-2 activating peptide (selectivity control)", "format": "cell-based", "details": "PAR-2 AP 100 µM; antagonist 10 µM", "protocol": "as §1"}},
  "data": [
    {"compound": "CC(C)c1ccc(NC(=O)Cn2cnc3c2c(=O)n(C)c(=O)n3C)cc1", "note": "[HC-030031]", "values": [
      {"measurement": "effect of antagonist on calcium response evoked by CNM, ACR or CSE", "setting": "TRPA1; A549 and IMR90", "value": "abolished"},
      {"measurement": "effect of antagonist on calcium responses to CNM, ACR and CSE", "setting": "TRPA1; SAEC, NHLF, HBSMC", "value": "prevented"},
      {"measurement": "effect of antagonist on calcium response to the PAR-2 activating peptide", "setting": "PAR-2 receptor", "value": "did not affect"}
    ]}
  ]
}
